Among the data in patent publication US7030110B2, “Cyclic oxyguanidine pyrazinones as protease inhibitors” (Ortho-McNeil Pharmaceuticals, Inc., priority 2000, dated 2006) are Ki values, retold here.

Where a name gives a salt, the structure may show the parent alone.

This test addresses T1, human α-thrombin (Homo sapiens, UniProt P00734).
T1 construct: Human α-thrombin, human factor Xa and human plasmin were obtained from Enzyme Research Laboratories; purchased Enzyme Research Laboratories (South Bend, Indiana)
Description: In vitro inhibition of purified thrombin, Ki determination (p-nitroanilide substrate hydrolysis). Type of test: biochemical. The note with it: purified human α-thrombin 0.5 nM; substrate N-succinyl-Ala-Ala-Pro-Arg-p-nitroanilide; 50 mM HEPES, 200 mM NaCl, pH 7.5; 37° C. The source says: Reagents: All buffer salts were obtained from Sigma Chemical Company (St. Louis, Mo.), and were of the highest purity available. The enzyme substrates, N-benzoyl-Phe-Val-Arg-p-nitroanilide (Sigma B7632), N-benzoyl-Ile-Glu-Gly-Arg-p-nitroanilide hydrochloride (Sigma B2291), N-p-Tosyl-Gly-Pro-Lys-p-nitroanilide (Sigma T6140), N-succinyl-Ala-Ala-Pro-Phe-p-nitroanilide (Sigma S7388) and N-CBZ-Val-Gly-Arg-p-nitroanilide (Sigma C7271) were obtained from Sigma. N-succinyl-Ala-Ala-Pro-Arg-p-nitroanilide (BACHEM L-1720) and N-succinyl-Ala-Ala-Pro-Val-p-nitroanilide (BACHEM L-1770) were obtained from BACHEM (King of Prussia, Pa.). […]
Ki Determinations: All assays are based on the ability of the test compound to inhibit the enzyme catalyzed hydrolysis of a peptide p-nitroanilide substrate. […] In general, substrate concentrations are lower than the experimentally determined value for Km. […]
In a typical K1 determination, into each well of a 96 well plate is pipetted […] of substrate solution, […] of test compound solution, and the plate allowed to thermally equilibrate at 37° C. in a Molecular Devices plate reader for >15 minutes. Reactions were initiated by the addition of a […] aliquot of enzyme and the absorbance increase at 405 nm is recorded for 15 minutes. […] The data are fit to a linear regression, and the value of the slope of the line calculated. […]

As to `Cc1ccc(CCNc2ncc(C)n(CC(=O)NC3CCN(C(=N)N)OC3)c2=O)cc1` (centres unmarked) [Example 1, N-(2-Carbamimidoyl-[1,2]oxazinan-5-yl)-2-[6-methyl-2-oxo-3-(2-p-tolylethylamino)-2H-pyrazin-1-yl]-acetamide trifluoroacetate], the inhibitory constant (Ki) fell in the range of 0.6 to 1.3 nM. With `Cc1cnc(NCC(F)(F)c2ccccc2)c(=O)n1CC(=O)NCC1CNC(=N)NO1` (centres unmarked) [Example 2, 2-[3-(2,2-Difluoro-2-phenylethylamino)-6-methyl-2-oxo-2H-pyrazin-1-yl]-N-(3-imino-[1,2,4]oxadiazinan-6-ylmethyl)-acetamide Trifluoroacetate], the Ki amounted to 5 nM. This lies in the single-digit nanomolar range.

As usually defined, the Ki is a dissociation constant, usually derived from enzyme kinetics or from competition with a known ligand. A low value points to tighter binding.
